Reference: PMC9825998 (The Journal of Physiology, 2022)
Like-named read-outs stand apart in the source and are kept apart here.

Tests used:
Kir6.2+SUR1 = target: T1, Kir6.2+SUR1 (Homo sapiens, UniProt Q14654); assay: Nucleotide inhibition of KATP currents in inside-out patches from HEK293T cells, Hill fit; assay type: biochemical
T1 construct: expressed in transfected cells; host or cells: HEK293T
Experimental: (§1) Human Kir6.2 and SUR1 were subcloned into pCGFP_EU [green fluorescent proten (GFP)‐tagged constructs] and pcDNA4/TO, respectively. Site‐directed mutagenesis and amber stop codons were introduced using the QuikChange XL system (Stratagene, San Diego, CA, USA) and verified by sequencing (DNA Sequencing and Services, Dundee, UK), as previously described (Usher et al., [2020]). HEK293T cells were grown in Dulbecco's modified Eagle's medium (DMEM; Sigma) with the addition of 10% fetal bovine serum, 100 U ml^−1 penicillin and 100 μg ml^−1 streptomycin (Thermo Fisher Scientific; Waltham, MA, USA) at 37°C, 5:95 CO2:air. Cells were seeded in T25 flasks for 24 h, before transfection with TransIT‐LT1 (Mirus Bio LLC, Madison, WI, USA). Protein expression and trafficking to the plasma membrane were optimized by including 300 μM tolbutamide in the transfection media (Yan et al., [2007]). 3‐(6‐Acetylnaphthalen‐2‐ylamino)‐2‐aminopropanoic acid (ANAP)‐tagged Kir6.2 constructs were cultured in the presence of 20 μM ANAP (free acid; AsisChem, Waltham, MA, USA), and 48 h post‐transfection the cells were re‐plated onto either poly‐D‐lysine‐coated glass‐bottomed FluoroDishes (FD35‐PDL‐100; World Precision Instruments) or poly‐L‐lysine‐coated 35 mm Petri dishes (Corning). pCDNA4/TO and pANAP were obtained from Addgene. peRF1‐E55D (Homo sapiens) and pCGFP_EU (Aequorea victoria) were kind gifts from the Chin Laboratory (MRC Laboratory of Molecular Biology, Cambridge, UK) and Gouaux Laboratory (Vollum Institute, Portland, OR, USA), respectively.
(§2) Extracellular (pipette) solutions contained (mM): 140 KCl, 1 EGTA and 10 Hepes (pH adjusted to 7.3 with KOH). The intracellular (bath) solutions contained (mM): 140 KCl, 1 EDTA, 1 EGTA, 10 Hepes (pH adjusted to 7.3 with KOH). Inside‐out patches were excised from transfected HEK293T cells using borosilicate glass pipettes (GC150F‐15; Harvard Apparatus, Holliston, MA, USA) pulled to a resistance of 1–3 MΩ. Data were acquired at a holding potential of −60 mV using an Axopatch 200B amplifier and a Digidata 1322A digitizer run through pClamp 9 software (Molecular Devices, San Jose, CA, USA).

Kir6.2‐K39A+SUR1 [1] = target: T2, Kir6.2‐K39A+SUR1 (Homo sapiens, UniProt Q14654, K39A); assay: as above; assay type: biochemical
T2 construct: expressed in transfected cells; host or cells: HEK293T
T2 sequence (Q14654 whole entry K39A): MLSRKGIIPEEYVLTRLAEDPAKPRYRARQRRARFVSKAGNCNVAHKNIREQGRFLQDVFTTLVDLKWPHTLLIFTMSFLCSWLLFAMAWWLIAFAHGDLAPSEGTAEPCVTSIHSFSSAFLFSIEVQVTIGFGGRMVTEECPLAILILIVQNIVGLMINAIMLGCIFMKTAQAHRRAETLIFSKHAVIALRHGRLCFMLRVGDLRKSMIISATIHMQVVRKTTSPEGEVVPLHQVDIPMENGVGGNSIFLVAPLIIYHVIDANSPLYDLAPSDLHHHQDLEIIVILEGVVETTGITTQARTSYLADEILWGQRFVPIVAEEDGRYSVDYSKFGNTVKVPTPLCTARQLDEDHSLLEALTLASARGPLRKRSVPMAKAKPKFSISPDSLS
T2 sequence (Q09428 whole entry partner): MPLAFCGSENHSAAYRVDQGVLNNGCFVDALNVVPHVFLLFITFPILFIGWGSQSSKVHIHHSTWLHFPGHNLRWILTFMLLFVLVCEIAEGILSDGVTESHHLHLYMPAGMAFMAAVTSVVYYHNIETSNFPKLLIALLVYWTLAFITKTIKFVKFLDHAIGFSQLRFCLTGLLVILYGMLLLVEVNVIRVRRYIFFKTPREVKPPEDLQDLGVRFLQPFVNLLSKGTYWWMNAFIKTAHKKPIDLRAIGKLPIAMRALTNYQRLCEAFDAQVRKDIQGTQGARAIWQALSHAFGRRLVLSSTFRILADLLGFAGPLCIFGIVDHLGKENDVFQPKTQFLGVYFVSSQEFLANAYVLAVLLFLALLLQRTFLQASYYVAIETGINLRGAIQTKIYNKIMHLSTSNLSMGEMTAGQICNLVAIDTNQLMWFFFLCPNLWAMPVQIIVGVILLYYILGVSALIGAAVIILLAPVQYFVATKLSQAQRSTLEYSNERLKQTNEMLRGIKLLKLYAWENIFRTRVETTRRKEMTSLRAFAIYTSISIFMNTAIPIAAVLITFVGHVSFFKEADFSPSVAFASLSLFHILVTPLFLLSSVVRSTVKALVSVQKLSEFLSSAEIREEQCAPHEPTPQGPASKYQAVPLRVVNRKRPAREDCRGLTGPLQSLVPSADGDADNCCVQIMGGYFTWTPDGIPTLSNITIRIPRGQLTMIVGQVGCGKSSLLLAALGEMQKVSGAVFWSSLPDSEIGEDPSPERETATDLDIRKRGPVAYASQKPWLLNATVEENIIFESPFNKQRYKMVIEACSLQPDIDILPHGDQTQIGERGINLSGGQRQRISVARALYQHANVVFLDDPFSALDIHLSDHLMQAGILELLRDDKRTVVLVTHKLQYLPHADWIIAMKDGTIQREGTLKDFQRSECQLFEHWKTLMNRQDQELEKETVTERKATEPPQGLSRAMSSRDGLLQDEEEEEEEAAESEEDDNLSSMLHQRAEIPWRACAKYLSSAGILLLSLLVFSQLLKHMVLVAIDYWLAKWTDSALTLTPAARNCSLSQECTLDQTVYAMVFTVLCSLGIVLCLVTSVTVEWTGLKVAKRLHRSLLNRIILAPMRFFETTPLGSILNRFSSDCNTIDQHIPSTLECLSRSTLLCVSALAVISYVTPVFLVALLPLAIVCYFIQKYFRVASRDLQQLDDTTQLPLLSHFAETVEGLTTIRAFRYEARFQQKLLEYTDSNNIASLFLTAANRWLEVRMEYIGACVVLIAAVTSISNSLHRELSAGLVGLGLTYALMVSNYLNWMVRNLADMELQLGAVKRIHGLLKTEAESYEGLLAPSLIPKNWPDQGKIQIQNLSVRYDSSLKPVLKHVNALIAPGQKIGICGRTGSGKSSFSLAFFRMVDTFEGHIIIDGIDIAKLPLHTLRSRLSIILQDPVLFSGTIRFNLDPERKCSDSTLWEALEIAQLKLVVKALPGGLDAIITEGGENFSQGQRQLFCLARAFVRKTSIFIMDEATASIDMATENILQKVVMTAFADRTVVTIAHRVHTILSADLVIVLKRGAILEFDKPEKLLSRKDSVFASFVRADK
Experimental: as §1, §2

Kir6.2‐K39E+SUR1 = target: T3, Kir6.2‐K39E+SUR1 (Homo sapiens, UniProt Q14654, K39E); assay: as above; assay type: biochemical
T3 construct: expressed in transfected cells; host or cells: HEK293T
T3 sequence (Q14654 whole entry K39E): as the sequence (Q14654 whole entry K39A) above, with A39E counted along it
T3 sequence (Q09428 whole entry partner): as the sequence (Q09428 whole entry partner) above
Experimental: as §1, §2

Kir6.2‐K39R+SUR1 [2] = target: T4, Kir6.2‐K39R+SUR1 (Homo sapiens, UniProt Q14654, K39R); assay: as above; assay type: biochemical
T4 construct: expressed in transfected cells; host or cells: HEK293T
T4 sequence (Q14654 whole entry K39R): as the sequence (Q14654 whole entry K39A) above, with A39R counted along it
T4 sequence (Q09428 whole entry partner): as the sequence (Q09428 whole entry partner) above
Experimental: as §1, §2

Kir6.2‐K39A+SUR1 [3] = target: T2, Kir6.2‐K39A+SUR1; parameters: method as in previous submission of this manuscript; details: construct not specified further, quoted by Referee #4, ref previous submission of this manuscript; cited from earlier work
Kir6.2‐K39R+SUR1 [4] = target: T4, Kir6.2‐K39R+SUR1; parameters: method as in previous submission of this manuscript; details: construct not specified further, quoted by Referee #4, ref previous submission of this manuscript; cited from earlier work

T1 sequence (Q14654 whole entry): as the sequence (Q14654 whole entry K39A) above, with A39K counted along it
T1 sequence (Q09428 whole entry partner): as the sequence (Q09428 whole entry partner) above

Nc1ncnc2c1ncn2[C@@H]1O[C@H](COP(=O)(O)OP(=O)(O)OP(=O)(O)O)[C@H]2OC3(O[C@H]21)C([N+](=O)[O-])=CC(=[N+]([O-])[O-])C=C3[N+](=O)[O-] (stereo partly drawn) [TNP‐ATP, trinitrophenyl adenosine triphosphate]
IC50 (Kir6.2+SUR1): 1.08 µM | IC50 (Kir6.2‐K39A+SUR1 [1]): 11 µM | IC50 (Kir6.2‐K39E+SUR1): 11.8 µM | IC50 (Kir6.2‐K39R+SUR1 [2]): 2.48 µM | IC50 (Kir6.2‐K39A+SUR1 [3]): 13.2 µM | IC50 (Kir6.2‐K39R+SUR1 [4]): 2.62 µM
